# Results reported in US6770738B1, “Higher order structure and binding of peptide nucleic acids” (ISIS Pharmaceuticals, Inc., priority 1992, dated 2004).
# Tests used:
# Format in all cases: biochemical
# [1] = system: pTlO plasmid (dA10/dT10 insert) and corresponding plasmids linearized with CfrlOI; experiment: Site-specific S1 nuclease digestion of linearized plasmid complexed with PNA; conditions: 145 units S1 nuclease, room temperature; each PNA with its corresponding plasmid
# Description: PNA H-T10-LysNH2 (SEQ ID NO:2) was synthesized as described in Example 1. A pTlO plasmid was prepared from the pUC19 plasmid by inserting the dA10/dT10 (SEQ ID NO:3) sequence into the BamHl site of the polylinker as per the method of Egholm, N et al., J.A.C.S. 1992 114:1895-1897. The pTlO plasmid was linearized with CfrlOI restriction enzyme in the unique site. To form complex with the PNA, about0.1 μg of the linearized plasmid was incubated with 2 o.u./ml of PNA in 3 μl of the TE buffer (10 mM Tris-HCl; 1 mM EDTA, pH 7.4) at 37° C. To perform the S1 nuclease reaction, 10 μl of Na-Acetate buffer (33 mM NaAc; 50 mM NaCl; 10 mM ZnSO4; 0.5% of glycerol, pH 4.6) and 145 units of S1 nuclease (Sigma) were added and incubated for various time periods at room temperature. The reaction was terminated by adding 1 μl of 0.5 M EDTA and cooling to −20° C. Electrophoresis was performed in 1% agarose gel in the TBE buffer with subsequent staining with ethidium bromide. The results of this example are shown in FIG. 1 wherein the size of the markers are shown as are the incubation time periods. In FIG. 8 Lane 1: control—preincubation of DNA with PNA was performed under conditions unfavorable for complex formation (200 mM of NaCl). Lane 2: the reference band obtained by digestion with BamHI restriction enzyme. Lane 3: reference bands obtained by the digestion with Bgll restriction enzyme. […]
# [2] = system: T3 RNA polymerase transcription of pA10KS (d(A10) target); experiment: Inhibition of RNA polymerase T3 transcription elongation by PNA; conditions: PNA 1 or 10 uM bound to the template strand
# Description: The complex, between PNA T10-LysNH2 (SEQ ID NO:2) (1 or 10 um) and pAIOKS (pBluescriptKS^+ in which the d(A10) target is cloned into the BamHl site, analogous to pTlO) (100 ng) cleaved with restriction enzyme PyuII, XbaI, or BamHl, was formed by incubation in 14 μL 10 m Tris-HCl, 1 mM EDTA, (pH 7.4) buffer for 60 min. at 37° C. Subsequently 4 μL 5× concentrated polymerase buffer (0.2 M Tris-HCl, pH 8.0, 125 mM NaCl, 40 mM MgCl2, 10 mM spermidine) was added together with 15 U T3 RNA polymerase and ATP (10 mM), CTP (10 mM), GTP (10 mM), UTP (1 mM) and ^32P-UTP (0.1 μCi), and the incubation was continued for 10 min. Following ethanol precipitation, the RNA was analyzed by electrophoresis in sequencing gels and the radiolabeled bands were visualized by autoradiography using intensifying screens. The results are shown in FIG. 18: Lane 1: pTIOKS was cut with PyuH and no PNA was present. Lane 2: pTIOKS was cut with BamHl, and no PNA was present. Lane 3: pTIOKS was cut with XbaI, no PNA. Lane 4: as in lane 1 but in the presence of PNA (1 uM). Lane 5: as lane 3+PNA (1 uM). Lane 6: as lane 1+PNA (10 uM). Lane 7: as lane 3+PNA (10 uM).
# The complex between the desired PNA and the desired DNA (100 ng) cleaved with the desired restriction enzyme was formed by incubation in 14 μL 10 mM Tris-HCl, 1 mM EDTA, (pH 7.4) buffer for 60 min at 37° C. Subsequently 4 μL 5× concentrated polymerase buffer (0.2 M Tris-HCl, pH 8.0, 125 mM NaCl, 40 mM MgCl2 10 mM spermidine) was added together with 15 U of RNA polymerase and ATP (10 μM), CTP (10 mM), UTP (1 mM) and ^32P-UTP (0.1 μCi). The incubation was continued for 10 min. Following ethanol precipitation, the RNA was analyzed by electrophoresis in polyacrylamide sequencing gels, and radialabeled RNA bands were visualized by autoradiography (using Agfa Curix RPI X-ray films and intensifying screens). Quantitation was performed by densitometric scanning using a Molecular Dynamics laser scanner and the ImageQuant™ software.
# In this example transcription arrest with PNAs shorter than 10 mers was examined. […]
# [3] = system: Taq DNA polymerase primer extension on pAIOKS; experiment: Inhibition of Taq DNA polymerase primer extension by PNA; conditions: pre-formed complex, 1 ug PNA
# Description: A mixture of 100 500 ng Pvull cleaved plasmid pAIOKS, 0.1 ug M13 reverse primer and 1 ug of PNA T10-LysNH2(SEQ ID NO:2) in 10 ul buffer ([…], pH 8.3, 50 mM KCl, 1.5 mM MgCl2, 0.1 mg/ml gelatine) was incubated for 5 min at 90° C. and then for 60 min at 37° C. Subsequently, 1 U of Taq polymerase, 1 ul dCTP (100 uM), dGTP (100 uM), dTTP (100 uM) and ^32 P-dATP (1 uCi) were added and the incubation continued for 5 min at 20° C. Following the addition of 2 ul dATP, dCTP, dGTP, dTTP (1 mM each), the sample was incubated for 15 min at 60° C. The DNA was precipitated with ethanol and the samples treated as described for Example 18. The results are shown in FIG. 19: Lane 1: pTIOKS was cut with PvuII and no PNA was present. Lane 2: same as lane one with PNA present. Lane 3: no PNA and PTIOKS was cut with BamHl.
substance,measurement,setting,value
H-T10LysNH2 [PNA H-T10-LysNH2],S1 nuclease cutting of linearized plasmid complexed with PNA,[1],a significant fraction of DNA was cut
same,transcription elongation by RNA polymerase T3,[2],effectively blocked
same,primer extension product of Taq DNA polymerase,[3],a product corresponding in length to blockage at the PNA was produced
